Measured values reported in patent publication US11427549B2, “Pyrimidinyloxy benzo-fused compounds as herbicides” (FMC Corporation, priority 2017, dated 2022).

Assays:
[1] = tested on: barnyardgrass (Echinochloa crus-galli); assay: Test A preemergence, barnyardgrass; format: in vivo; details: Echinochloa crus-galli, pre-emergence, 240 h, 0 to 100 scale (0 no effect, 100 complete control), read-out: Plant response rating, Barnyardgrass
[2] = tested on: kochia (Kochia scoparia); assay: Test A preemergence, kochia; format: in vivo; details: Bassia scoparia, pre-emergence, 240 h, 0 to 100 scale (0 no effect, 100 complete control), read-out: Plant response rating, Kochia
[3] = tested on: ragweed (common ragweed, Ambrosia elatior); assay: Test A preemergence, ragweed; format: in vivo; details: Ambrosia artemisiifolia, pre-emergence, 240 h, 0 to 100 scale (0 no effect, 100 complete control), read-out: Plant response rating, Ragweed
[4] = tested on: ryegrass, Italian (Italian ryegrass, Lolium multiflorum); assay: Test A preemergence, ryegrass, Italian; format: in vivo; details: Lolium multiflorum, pre-emergence, 240 h, 0 to 100 scale (0 no effect, 100 complete control), read-out: Plant response rating, Ryegrass, Italian
[5] = tested on: foxtail, green (green foxtail, Setaria viridis); assay: Test A preemergence, foxtail, green; format: in vivo; details: Setaria, pre-emergence, 240 h, 0 to 100 scale (0 no effect, 100 complete control), read-out: Plant response rating, Foxtail, Green
[6] = tested on: pigweed (Amaranthus retroflexus); assay: Test A preemergence, pigweed; format: in vivo; details: Amaranthus retroflexus, pre-emergence, 240 h, 0 to 100 scale (0 no effect, 100 complete control), read-out: Plant response rating, Pigweed
[7] = tested on: barnyardgrass (Echinochloa crus-galli); assay: Test A postemergence, barnyardgrass; format: in vivo; details: Echinochloa crus-galli, post-emergence, 240 h, 0 to 100 scale (0 no effect, 100 complete control), read-out: Plant response rating, Barnyardgrass
[8] = tested on: kochia (Kochia scoparia); assay: Test A postemergence, kochia; format: in vivo; details: Bassia scoparia, post-emergence, 240 h, 0 to 100 scale (0 no effect, 100 complete control), read-out: Plant response rating, Kochia
[9] = tested on: ragweed (common ragweed, Ambrosia elatior); assay: Test A postemergence, ragweed; format: in vivo; details: Ambrosia artemisiifolia, post-emergence, 240 h, 0 to 100 scale (0 no effect, 100 complete control), read-out: Plant response rating, Ragweed
[10] = tested on: ryegrass, Italian (Italian ryegrass, Lolium multiflorum); assay: Test A postemergence, ryegrass, Italian; format: in vivo; details: Lolium multiflorum, post-emergence, 240 h, 0 to 100 scale (0 no effect, 100 complete control), read-out: Plant response rating, Ryegrass, Italian
[11] = tested on: pigweed (Amaranthus retroflexus); assay: Test A postemergence, pigweed; format: in vivo; details: Amaranthus retroflexus, post-emergence, 240 h, 0 to 100 scale (0 no effect, 100 complete control), read-out: Plant response rating, Pigweed
[12] = tested on: wheat (Triticum aestivum); assay: Test A postemergence, wheat; format: in vivo; details: Triticum aestivum, post-emergence, 240 h, 0 to 100 scale (0 no effect, 100 complete control), read-out: Plant response rating, Wheat
[13] = tested on: corn (Zea mays); assay: Test A postemergence, corn; format: in vivo; details: Zea mays, post-emergence, 240 h, 0 to 100 scale (0 no effect, 100 complete control)
[14] = tested on: blackgrass (Alopecurus myosuroides); assay: Test A postemergence, blackgrass; format: in vivo; details: Alopecurus myosuroides, post-emergence, 240 h, 0 to 100 scale (0 no effect, 100 complete control), read-out: Plant response rating, Blackgrass
[15] = tested on: galium (catchweed bedstraw, Galium aparine); assay: Test A postemergence, galium; format: in vivo; details: Galium, post-emergence, 240 h, 0 to 100 scale (0 no effect, 100 complete control), read-out: Plant response rating, Galium
[16] = tested on: rice (Oryza sativa); assay: Test B flooded paddy test, rice; details: Oryza sativa, read-out: Plant response rating, Rice (0 to 100 scale, 0 is no effect, 100 is complete control)
[17] = tested on: ducksalad (Heteranthera limosa); assay: Test B flooded paddy test, ducksalad; details: Heteranthera limosa, read-out: Plant response rating, Ducksalad (0 to 100 scale, 0 is no effect, 100 is complete control)
[18] = tested on: barnyardgrass (Echinochloa crus-galli); assay: Test B flooded paddy test, barnyardgrass; details: Echinochloa crus-galli, read-out: Plant response rating, Barnyardgrass (0 to 100 scale, 0 is no effect, 100 is complete control)

## OC1(CCC(F)(F)F)CCc2cccc(Oc3ncc(Cl)cn3)c21 (stereo not drawn) [Compound 14, 7-[(5-Chloro-2-pyrimidinyl)oxy]-2,3-dihydro-1-(3,3,3-trifluoropropyl)-1H-inden-1-ol]
[1]; 125 g ai/ha
  pest or weed control at 125 g/ha: 20%
[1]; 500 g ai/ha
  pest or weed control at 500 g/ha: 90%
[2]; 125 g ai/ha
  pest or weed control at 125 g/ha: 50%
[2]; 500 g ai/ha
  pest or weed control at 500 g/ha: 100%
[3]; 125 g ai/ha
  pest or weed control at 125 g/ha: 40%
[3]; 500 g ai/ha
  pest or weed control at 500 g/ha: 70%
[4]; 125 g ai/ha
  pest or weed control at 125 g/ha: 10%
[4]; 500 g ai/ha
  pest or weed control at 500 g/ha: 60%
[5]; 125 g ai/ha
  pest or weed control at 125 g/ha: 40%
[5]; 500 g ai/ha
  pest or weed control at 500 g/ha: 100%
[6]; 125 g ai/ha
  pest or weed control at 125 g/ha: 100%
[6]; 500 g ai/ha
  pest or weed control at 500 g/ha: 100%
[7]; 125 g ai/ha
  pest or weed control at 125 g/ha: 30%
[7]; 500 g ai/ha
  pest or weed control at 500 g/ha: 80%
[8]; 125 g ai/ha
  pest or weed control at 125 g/ha: 80%
[8]; 500 g ai/ha
  pest or weed control at 500 g/ha: 80%
[9]; 125 g ai/ha
  pest or weed control at 125 g/ha: 70%
[9]; 500 g ai/ha
  pest or weed control at 500 g/ha: 90%
[10]; 125 g ai/ha
  pest or weed control at 125 g/ha: 20%
[10]; 500 g ai/ha
  pest or weed control at 500 g/ha: 90%
[11]; 125 g ai/ha
  pest or weed control at 125 g/ha: 50%
[11]; 500 g ai/ha
  pest or weed control at 500 g/ha: 100%
[12]; 125 g ai/ha
  plant injury at 125 g/ha: 30%
[12]; 500 g ai/ha
  plant injury at 500 g/ha: 60%
[13]; 125 g ai/ha
  Corn plant response rating (crop injury, 0 = no effect, 100 = complete kill) at 125 g/ha: 10%
[13]; 500 g ai/ha
  Corn plant response rating (crop injury, 0 = no effect, 100 = complete kill) at 500 g/ha: 40%
[14]; 125 g ai/ha
  pest or weed control at 125 g/ha: 40%
[14]; 500 g ai/ha
  pest or weed control at 500 g/ha: 90%
[15]; 125 g ai/ha
  pest or weed control at 125 g/ha: 50%
[15]; 500 g ai/ha
  pest or weed control at 500 g/ha: 90%
[16]
  plant injury at 250 g/ha: 0%
[17]
  pest or weed control at 250 g/ha: 40%
[18]
  pest or weed control at 250 g/ha: 0%
